Test results as given in the supplement of paper PMC11061612.

What was measured:
[1] = compound: Cc1cc2ncnn2cc1Nc1ncc2c(n1)n(C1CCOCC1)c(=O)n2C [AZD7648]; conditions: max 10 µM
Method in brief: (§1)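 Cancer cell lines were dosed for 72 hours (final DMSO typically 0.2%) after 24 hours at 37°C and 5% CO2 in 1536-well plates containing 7.5 μl DMEM/F12 or RPMI with 10% FBS. Viability came from CellTiter-Glo 2.0 luminescence, scaled between blank-well and DMSO-well means, and dose responses were fitted to a two-parameter logistic curve with a non-linear mixed effects model. The single-agent IC50 was obtained from this fit.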

[2] = compound: CC(C)n1c(=O)n(C)c2cnc3cc(F)c(-c4ccc(OCCCN5CCCCC5)nc4)cc3c21 [AZD1390]; conditions: max 0.3 µM
Method in brief: as §1

[3] = compound: CC1=C(C(=CC=C1)Cl)NC(=O)C2=CN=C(S2)NC3=CC(=NC(=N3)C)N4CCN(CC4)CCO [Dasatinib]; conditions: max 2 µM
Method in brief: as §1

[4] = compound: COc1nnc2ccc(N3CCC(c4ccc(OCCN5CCN(C)C(=O)[C@H]5C)cc4)CC3)nn12 [AZD5153]; conditions: max 1 µM
Method in brief: as §1

[5] = compound: COc1cccc(OCCCN)c1-c1cc(Nc2cnc(C#N)cn2)n[nH]1 [Prexasertib]; conditions: max 1 µM
Method in brief: as §1

[6] = compound: CN(C)CCCOc1ccc(-c2ccc3ncc4c(c3c2)n(C2CCOCC2)c(=O)n4C)cn1 [AZD0156]; conditions: max 3 µM
Method in brief: as §1

[7] = compound: COc1cc2ncnc(Nc3ccc(F)c(Cl)c3)c2cc1OCCCN1CCOCC1 [Gefitinib]; conditions: max 10 µM
Method in brief: as §1

[8] = compound: CCN(CCO)CCCOc1ccc2c(Nc3cc(CC(=O)Nc4cccc(F)c4)[nH]n3)ncnc2c1 [AZD2811]; conditions: max 1 µM
Method in brief: as §1

[9] = compound: Cn1cnc2c(F)c(Nc3ccc(Br)cc3Cl)c(C(=O)NOCCO)cc21 [Selumetinib]; conditions: max 10 µM
Method in brief: as §1

[10] = compound: CS(=O)(=O)CCNCc1ccc(-c2ccc3ncnc(Nc4ccc(OCc5cccc(F)c5)c(Cl)c4)c3c2)o1 [Lapatinib]; conditions: max 10 µM
Method in brief: as §1

[11] = compound: CC(=O)Nc1cccc(-n2c(=O)n(C3CC3)c(=O)c3c(Nc4ccc(I)cc4F)n(C)c(=O)c(C)c32)c1 [Trametinib]; conditions: max 1 µM
Method in brief: as §1

[12] = compound: C=CCn1c(=O)c2cnc(Nc3ccc(N4CCN(C)CC4)cc3)nc2n1-c1cccc(C(C)(C)O)n1 [AZD1775]; conditions: max 3 µM
Method in brief: as §1

[13] = compound: C1CN(CCC1(C(=O)N[C@@H](CCO)C2=CC=C(C=C2)Cl)N)C3=NC=NC4=C3C=CN4 [Capivasertib]
Method in brief: as §1

[14] = compound: CN(CC[C@H](CSC1=CC=CC=C1)NC2=C(C=C(C=C2)S(=O)(=O)NC(=O)C3=CC=C(C=C3)N4CCC(CC4)[C@H](C5=CC=CC=C5C6=CC=C(C=C6)Cl)O)S(=O)(=O)C(F)(F)F)CCO [AZD4320]; conditions: max 1 µM
Method in brief: as §1

[15] = compound: COc1cccc2c1C(=O)c1c(O)c3c(c(O)c1C2=O)C[C@@](O)(C(=O)CO)C[C@@H]3O[C@H]1C[C@H](N)[C@H](O)[C@H](C)O1 [Doxorubicin]; conditions: max 1 µM
Method in brief: as §1

[16] = compound: COc1cc(Nc2ncc3c(n2)-c2ccc(Cl)cc2C(c2c(F)cccc2OC)=NC3)ccc1C(=O)O [Alisertib]; conditions: max 10 µM
Method in brief: as §1

[17] = compound: C[C@@H](Oc1cc(-c2cnn(C3CCNCC3)c2)cnc1N)c1c(Cl)ccc(F)c1Cl [Crizotinib]; conditions: max 10 µM
Method in brief: as §1

[18] = compound: C[C@@H](Nc1cc(F)cc(F)c1)c1cc(C(=O)N(C)C)cc2c(=O)cc(N3CCOCC3)oc12 [AZD8186]; conditions: max 3 µM
Method in brief: as §1

[19] = compound: O=C(c1cc(Cc2n[nH]c(=O)c3ccccc23)ccc1F)N1CCN(C(=O)C2CC2)CC1 [Olaparib]
Method in brief: as §1

[20] = compound: CCc1c2c(nc3ccc(O)cc13)-c1cc3c(c(=O)n1C2)COC(=O)[C@]3(O)CC [SN-38]; conditions: max 0.3 µM
Method in brief: as §1

[21] = compound: CC1=CN2[C@@H](C1)C=NC3=CC(=C(C=C3C2=O)OC)OCCCCCOC4=C(C=C5C(=C4)N=C[C@@H]6CC(=CN6C5=O)C)OC [SG3199]; conditions: max 0.001 µM
Method in brief: as §1

[22] = compound: Cc1c2c(nn1C)CSCc1cc(n(C)n1)CSc1cc(c3ccccc3c1)OCCCc1c(C(=O)O)n(C)c3c-2c(Cl)ccc13 [AZD5991]; conditions: max 1 µM
Method in brief: as §1

[23] = compound: C[C@@H](c1ccc2nccn2c1)n1nnc2ncc(-c3cnn(C)c3)nc21 [Savolitinib]; conditions: max 1 µM
Method in brief: as §1

[24] = compound: CC(=O)c1c(C)c2cnc(Nc3ccc(N4CCNCC4)cn3)nc2n(C2CCCC2)c1=O [Palbociclib]; conditions: max 10 µM
Method in brief: as §1

[25] = compound: CC1(C)CCC(CN2CCN(c3ccc(C(=O)NS(=O)(=O)c4ccc(NCC5CCOCC5)c([N+](=O)[O-])c4)c(Oc4cnc5[nH]ccc5c4)c3)CC2)=C(c2ccc(Cl)cc2)C1 [Venetoclax]; conditions: max 1 µM
Method in brief: as §1

[26] = compound: Cc1nc(-c2cn3c(n2)-c2ccc(-c4cnn(C(C)(C)C(N)=O)c4)cc2OCC3)n(C(C)C)n1 [Taselisib]; conditions: max 10 µM
Method in brief: as §1

[27] = compound: C[C@@H]1COCCN1C2=NC(=NC(=C2)C3(CC3)[S@](=N)(=O)C)C4=C5C=CNC5=NC=C4 [AZD6738]; conditions: max 10 µM
Method in brief: as §1

Cell Line	IC50, cell viability 72 h [1]	IC50, cell viability 72 h [2]	IC50, cell viability 72 h [3]	IC50, cell viability 72 h [4]	IC50, cell viability 72 h [5]	IC50, cell viability 72 h [6]	IC50, cell viability 72 h [7]	IC50, cell viability 72 h [8]	IC50, cell viability 72 h [9]	IC50, cell viability 72 h [10]	IC50, cell viability 72 h [11]	IC50, cell viability 72 h [12]	IC50, cell viability 72 h ([13]; max 10 µM)	IC50, cell viability 72 h [14]	IC50, cell viability 72 h [15]	IC50, cell viability 72 h [16]	IC50, cell viability 72 h [17]	IC50, cell viability 72 h [18]	IC50, cell viability 72 h ([19]; max 10 µM)	IC50, cell viability 72 h [20]	IC50, cell viability 72 h [21]	IC50, cell viability 72 h [22]	IC50, cell viability 72 h [23]	IC50, cell viability 72 h [24]	IC50, cell viability 72 h [25]	IC50, cell viability 72 h [26]	IC50, cell viability 72 h [27]	IC50, cell viability 72 h ([13]; max 3 µM)	IC50, cell viability 72 h ([19]; max 3 µM)
42-MG-BA (Glioblastoma)	> 10 µM	> 0.3 µM	0.0546 µM	0.401 µM	0.0253 µM	> 3 µM	> 10 µM	> 1 µM	> 10 µM	> 10 µM	> 1 µM	1.05 µM	2.25 µM	> 1 µM	0.163 µM	8.55 µM	> 10 µM	2.53 µM	> 10 µM	0.00739 µM	> 0.001 µM	0.299 µM	> 1 µM	> 10 µM	> 1 µM	0.627 µM	8.57 µM		
AGS (Gastric Carcinoma)	> 10 µM	> 0.3 µM	> 2 µM	0.251 µM	0.839 µM	> 3 µM	> 10 µM	> 1 µM	0.767 µM	> 10 µM	0.0119 µM	0.455 µM	> 10 µM	> 1 µM	0.151 µM	> 10 µM	> 10 µM	> 3 µM	> 10 µM	0.0226 µM	> 0.001 µM	> 1 µM	> 1 µM	> 10 µM	> 1 µM	0.577 µM	4.93 µM		
COLO-205 (Colorectal Carcinoma)	> 10 µM	> 0.3 µM	> 2 µM	0.499 µM	0.782 µM	> 3 µM	> 10 µM	0.116 µM	0.302 µM	> 10 µM	0.00616 µM	> 3 µM	> 10 µM	> 1 µM	0.518 µM	0.743 µM	4.11 µM	> 3 µM	> 10 µM	> 0.3 µM	> 0.001 µM	> 1 µM	> 1 µM	7.97 µM	> 1 µM	4.25 µM	> 10 µM		
DEL (T-Cell Non-Hodgkin's Lymphoma)	> 10 µM	> 0.3 µM	> 2 µM	0.0275 µM	0.0054 µM	2.81 µM	> 10 µM	0.151 µM	> 10 µM	8.54 µM	> 1 µM	0.178 µM	> 10 µM	> 1 µM	0.0913 µM	0.0203 µM	0.12 µM	> 3 µM	8.26 µM	0.0023 µM	> 0.001 µM	0.0287 µM	> 1 µM	3.53 µM	> 1 µM	> 10 µM	0.707 µM		
NCI-H1869 (Non-Small Cell Lung Carcinoma)						> 3 µM						> 3 µM																> 3 µM	> 3 µM
RC-K8 (B-Cell Non-Hodgkin's Lymphoma)	> 10 µM	> 0.3 µM	> 2 µM	0.1 µM	0.0145 µM	> 3 µM	> 10 µM	> 1 µM	> 10 µM	> 10 µM	> 1 µM	> 3 µM	> 10 µM	0.856 µM		3 µM	> 10 µM	> 3 µM		0.0134 µM		> 1 µM	> 1 µM	> 10 µM	> 1 µM	7.69 µM	1.63 µM		> 3 µM
